Broadly, the IC50 is the point on the concentration scale where inhibition reaches its midpoint.

SMILES strings stand for the structures.

In one test the test system is NCI-H358 (K-Ras G12C). Description: CellTiter-Glo cell viability assay, NCI-H358. To be noted: 5-day treatment; read-out: H358 Cell Viability assay data (K-Ras G12C, IC50). It counts as cell-based, human. How it is done:
Determination of Cell Viability in RAS Mutant Cancer Cell Lines Protocol: CellTiter-Glo® Cell Viability Assay
Note—The following protocol describes a procedure for monitoring cell viability of K-Ras mutant cancer cell lines in response to a compound of the invention. Other RAS isoforms may be employed, though the number of cells to be seeded will vary based on cell line used.
Test compounds (132.5 nL) were directly dispensed into the assay plates containing cells. […] On day 5, assay plates and their contents were equilibrated to room temperature for approximately 30 minutes. […] Luminescence was measured using the PerkinElmer Enspire. Data were normalized by the following: (Sample signal/Avg. DMSO)*100. The data were fit using a four-parameter logistic fit.
(ATP-based viability assays read luminescence as a measure of living cells.)
As for `C=CC(=O)N1CC[C@H](C(=O)N(C)[C@H](C(=O)N[C@H]2Cc3cc(O)cc(c3)-c3ccc4c(c3)c(c(-c3cccnc3)n4C(C)(C)C#N)CC(C)(C)COC(=O)[C@@H]3CCCN(N3)C2=O)C(C)C)C1` [Compound A74], the 50% inhibitory concentration (IC50) lay in the range of 0.01 to 0.1 µM.

Consider `C=CC(=O)N1CC[C@H](C(=O)N(C)[C@H](C(=O)N[C@H]2Cc3cc(O)cc(c3)-c3ccc4c(c3)c(c(-c3cnccc3[C@H](C)OC)n4CC)CC(C)(C)COC(=O)[C@@H]3CCCN(N3)C2=O)C(C)C)C1` [Compound A112], for which the 50% inhibitory concentration (IC50) was less than 0.01 µM.

With `C=CC(=O)N1CC[C@H](C(=O)N(C)[C@H](C(=O)N[C@H]2Cc3cccc(c3)-c3ccc4c(c3)c(c(-c3cnccc3[C@H](C)OC)n4CC)CC(C)(C)COC(=O)[C@@H]3CCCN(N3)C2=O)C(C)C)C1` [Compound A122], the 50% inhibitory concentration (IC50) was greater than 10 µM.

Still in this test, the particulars now being: Homo sapiens, NCI-H358, 120 h, 5-day treatment; read-out: H358 Cell Viability assay data (K-Ras G12C, IC50).
Take `C=CC(=O)N1CC[C@H](C(=O)N(C)[C@H](C(=O)N[C@H]2Cc3cc(OC(=O)CN)cc(c3)-c3ccc4c(c3)c(c(-c3c(CCOC)cccc3OC)n4CC)CC(C)(C)COC(=O)[C@@H]3CCCN(N3)C2=O)C(C)C)C1` [Compound A8]: the 50% inhibitory concentration (IC50) was in the range of 0.1 to 1 µM.

`CCn1c(-c2cnccc2COC)c2c3cc(ccc31)-c1cc(O)cc(c1)C[C@H](NC(=O)[C@H](C(C)C)N(C)C(=O)[C@H]1CCN(C(=O)C3COC3)C1)C(=O)N1CCC[C@H](N1)C(=O)OCC(C)(C)C2` [Compound A9]: the IC50 fell in the range of 0.1 to 1 µM.

As for `C=CC(=O)N1CC[C@H](C(=O)N(C)[C@H](C(=O)N[C@H]2Cc3cc(O)cc(c3)-c3ccc4c(c3)c(c(-c3ncccc3COC)n4CC)CC(C)(C)COC(=O)[C@@H]3CCCN(N3)C2=O)C(C)C)C1` [Compound A16], the 50% inhibitory concentration (IC50) lay within 0.01 to 0.1 µM.

With `CCn1c(-c2cnccc2COC)c2c3cc(ccc31)-c1cc(O)cc(c1)C[C@H](NC(=O)[C@H](C(C)C)N(C)C(=O)[C@H]1CCN(C=O)C1)C(=O)N1CCC[C@H](N1)C(=O)OCC(C)(C)C2` [Compound A17, (2S)—N-[(8S,14S)-22-ethyl-4-hydroxy-21-[4-(methoxymethyl)pyridin-3-yl]-18,18-dimethyl-9,15-dioxo-16-oxa-10,22,28-triazapentacyclo [18.5.2.1^2,6.1^10,14.0^23,27]nonacosa-1 (26), 2,4,6 (29),20,23 (27),24-heptaen-8-yl]-2-{1-[(3S)-1-formylpyrrolidin-3-yl]-N-methylformamido}-3-methylbutanamide], the IC50 lay within 0.1 to 1 µM.

Consider `CCn1c(-c2cnccc2COC)c2c3cc(ccc31)-c1cc(O)cc(c1)C[C@H](NC(=O)[C@H](C(C)C)N(C)C(=O)[C@H]1CCN(C(=O)C(C)C)C1)C(=O)N1CCC[C@H](N1)C(=O)OCC(C)(C)C2` [Compound A29], for which the half-inhibitory concentration (IC50) lay within 0.1 to 1 µM.

`C=CC(=O)N1CC[C@H](C(=O)N(C)[C@H](C(=O)N[C@H]2Cc3cc(O)cc(c3)-c3ccc4c(c3)c(c(-c3ccc(C5CCN(C)CC5)cc3)n4CC)CC(C)(C)COC(=O)[C@@H]3CCCN(N3)C2=O)C(C)C)C1` [Compound A39]: the concentration for half-maximal inhibition (IC50) fell in the range of 0.01 to 0.1 µM.

Consider `C=CC(=O)N1CC[C@H](C(=O)N(C)[C@H](C(=O)N[C@H]2Cc3cc(O)cc(c3)-c3ccc4c(c3)c(c(-c3ccc5c(c3)CCN(C)C5)n4CC)CC(C)(C)COC(=O)[C@@H]3CCCN(N3)C2=O)C(C)C)C1` [Compound A40], for which the 50% inhibitory concentration (IC50) lay within 0.01 to 0.1 µM.

On to `CCn1c(-c2ccccc2CN(C)C)c2c3cc(ccc31)-c1cc(O)cc(c1)C[C@H](NC(=O)[C@H](C(C)C)N(C)C(=O)c1ccc(NC(=O)/C=C/CN(C)C)cn1)C(=O)N1CCC[C@H](N1)C(=O)OCC(C)(C)C2` [Compound A46], for which the IC50 was greater than 10 µM.

Regarding `CCn1c(-c2cnccc2COC)c2c3cc(ccc31)-c1cc(O)cc(c1)C[C@H](NC(=O)[C@@H](OC(=O)N(C)C)C(C)C)C(=O)N1CCC[C@H](N1)C(=O)OCC(C)(C)C2` [Compound A53], the IC50 was in the range of 0.1 to 1 µM.

Consider `C=CC(=O)N1CC[C@H](C(=O)N(C)[C@H](C(=O)N[C@H]2Cc3cc(O)cc(c3)-c3ccc4c(c3)c(c(-c3cncnc3)n4CC)CC(C)(C)COC(=O)[C@@H]3CCCN(N3)C2=O)C(C)C)C1` [Compound A61], for which the concentration for half-maximal inhibition (IC50) was 0.01 to 0.1 µM.

As to `C=CC(=O)N1CC[C@@]2(CCCN([C@H](C(=O)N[C@H]3Cc4cc(O)cc(c4)-c4ccc5c(c4)c(c(-c4ccccc4CCOC)n5CC)CC(C)(C)COC(=O)[C@@H]4CCCN(N4)C3=O)C(C)C)C2=O)C1` [Compound A63], the IC50 lay in the range of 0.1 to 1 µM.

Regarding `CCn1c(-c2cccnc2COC)c2c3cc(ccc31)-c1cc(O)cc(c1)C[C@H](NC(=O)[C@H](C(C)C)N(C)C(=O)[C@H]1CCN(C(=O)/C=C/CN3CCN(C)CC3)C1)C(=O)N1CCC[C@H](N1)C(=O)OCC(C)(C)C2` [Compound A72], the 50% inhibitory concentration (IC50) was greater than 10 µM.

In the case of `C=CC(=O)N1CC[C@H](C(=O)N(C)[C@H](C(=O)N[C@H]2Cc3cc(O)cc(c3)-c3ccc4c(c3)c(c(-c3cnccc3[C@H](C)OC)n4CC)CC(C)(C)COC(=O)[C@@H]3CCCN(N3)C2=O)C(C)C)C1` [Compound A76], the half-inhibitory concentration (IC50) was less than 0.01 µM.

Consider `CCn1c(-c2ccccc2COC)c2c3cc(ccc31)-c1cc(O)cc(c1)C[C@H](NC(=O)[C@H](C(C)C)N(C)C(=O)[C@H]1CCN(C(=O)/C=C/CN(C)C)C1)C(=O)N1CCC[C@H](N1)C(=O)OCC(C)(C)C2` [Compound A79], for which the IC50 lay within 0.01 to 0.1 µM.

As to `CCn1c(-c2cnccc2COC)c2c3cc(ccc31)-c1cc(O)cc(c1)C[C@H](NC(=O)[C@H](C(C)C)N(C)C(=O)C1CCN(C)CC1)C(=O)N1CCC[C@H](N1)C(=O)OCC(C)(C)C2` [Compound A84], the IC50 fell in the range of 0.1 to 1 µM.

For the compound `CCn1c(-c2ccccc2CN(C)C)c2c3cc(ccc31)-c1cc(O)cc(c1)C[C@H](NC(=O)[C@H](C(C)C)N(C)C(=O)c1nc(NC(=O)/C=C/CN(C)C)cs1)C(=O)N1CCC[C@H](N1)C(=O)OCC(C)(C)C2` [Compound A90], the concentration for half-maximal inhibition (IC50) is greater than 10 µM.

On to `CCn1c(-c2cccnc2[C@H](C)OC)c2c3cc(ccc31)-c1cccc(c1)C[C@H](NC(=O)[C@H](C(C)C)N(C)C(=O)[C@H]1CCN(C(=O)CN(C)C)C1)C(=O)N1CCC[C@H](N1)C(=O)OCC(C)(C)C2` [Compound A96], for which the half-maximal inhibitory concentration (IC50) is less than 0.01 µM.

`C=CC(=O)N1CC[C@H](C(=O)N(C)[C@H](C(=O)N[C@H]2Cc3cc(O)cc(c3)-c3cc4c(c(-c5ccccc5CCOC)n(CC)c4cn3)CC(C)(C)COC(=O)[C@@H]3CCCN(N3)C2=O)C(C)C)C1` [Compound A102]: the IC50 is greater than 10 µM.

In the case of `C=CC(=O)N1CCN(C(=O)N(C)[C@H](C(=O)N[C@H]2Cc3cc(O)cc(c3)-c3ccc4c(c3)c(c(-c3ccccc3CCOC)n4CC)CC(C)(C)COC(=O)[C@@H]3CCCN(N3)C2=O)C(C)C)C[C@@H]1COC` [Compound A125], the concentration for half-maximal inhibition (IC50) was greater than 10 µM.

Consider `CCn1c(-c2ccccc2CN(C)C)c2c3cc(ccc31)-c1cc(O)cc(c1)C[C@H](NC(=O)[C@@H](C(C)C)N(C)C(=O)c1ncc(NC(=O)/C=C/CN(C)C)n1C)C(=O)N1CCC[C@H](N1)C(=O)OCC(C)(C)C2` [Compound A126], for which the half-inhibitory concentration (IC50) was greater than 10 µM.

As for `CCn1c(-c2cnccc2[C@H](C)OC)c2c3cc(ccc31)-c1cccc(c1)C[C@H](NC(=O)[C@H](C1CCCC1)N(C)C(=O)[C@H]1CCN(C(=O)C#CCN(C)C)C1)C(=O)N1CCC[C@H](N1)C(=O)OCC(C)(C)C2` [Compound A133], the IC50 is less than 0.01 µM.

Regarding `C=CC(=O)N1CC[C@H](C(=O)N(C)[C@H](C(=O)N[C@H]2Cc3cc(ccn3)-c3ccc4c(c3)c(c(-c3cccnc3COC)n4CC)CC(C)(C)COC(=O)[C@@H]3CCCN(N3)C2=O)C(C)C)C1` [Compound A136], the half-inhibitory concentration (IC50) is greater than 10 µM.

For the compound `C=CC(=O)N1CC[C@H](C(=O)N(C)[C@H](C(=O)N[C@H]2Cc3cc(O)cc(c3)-c3ccc4c(c3)c(c(-c3cc(CN(C)C)cnc3COC)n4CC)CC(C)(C)COC(=O)[C@@H]3CCCN(N3)C2=O)C(C)C)C1` [Compound A149], the concentration for half-maximal inhibition (IC50) fell in the range of 0.01 to 0.1 µM.

Regarding `C=CC(=O)N1CC[C@H](C(=O)N(C)[C@H](C(=O)N[C@H]2Cc3cc(O)cc(c3)-c3ccc4c(c3)c(c(-c3cccnc3)n4C3CC3)CC(C)(C)COC(=O)[C@@H]3CCCN(N3)C2=O)C(C)C)C1` [Compound A160], the IC50 fell in the range of 0.1 to 1 µM.

On to `C=CC(=O)N1CC(NC[C@H](C(=O)N[C@H]2Cc3cc(O)cc(c3)-c3ccc4c(c3)c(c(-c3cccnc3COC)n4CC)CC(C)(C)COC(=O)[C@@H]3CCCN(N3)C2=O)C(C)C)C1` [Compound A174], for which the IC50 was greater than 10 µM.

In the case of `C/C=C(\C#N)C(=O)N1CC[C@H](C(=O)N(C)[C@H](C(=O)N[C@H]2Cc3cc(O)cc(c3)-c3ccc4c(c3)c(c(-c3cccnc3COC)n4CC)CC(C)(C)COC(=O)[C@@H]3CCCN(N3)C2=O)C(C)C)C1` [Compound A178], the 50% inhibitory concentration (IC50) is greater than 10 µM.

Take `C=CC(=O)N1CC[C@@H](C(=O)N(C)[C@H](C(=O)N[C@H]2Cc3cc(O)cc(c3)-c3ccc4c(c3)c(c(-c3cncnc3)n4CC)CC(C)(C)COC(=O)[C@@H]3CCCN(N3)C2=O)C(C)C)O1` [Compound A179]: the half-maximal inhibitory concentration (IC50) is greater than 10 µM.

In the case of `C=CC(=O)N1CC[C@H](C(=O)N(C)[C@H](C(=O)N[C@H]2Cc3cc(O)cc(c3)-c3ccc4c(c3)c(c(-c3cncnc3)n4CC)CC(C)(C)COC(=O)[C@@H]3CCCN(N3)C2=O)C(C)C)O1` [Compound A180], the 50% inhibitory concentration (IC50) was greater than 10 µM.

Still in this test, the particulars now being: Homo sapiens, NCI-H358, 120 h, read-out: H358 Cell Viability assay data (K-Ras G12C, IC50, uM), 5-day treatment.
Turning to `C=CC(=O)N1CC[C@H](C(=O)N(C)[C@H](C(=O)N[C@H]2Cc3cc(O)cc(c3)-c3ccc4c(c3)c(c(-c3ccc(CN(C)C)nc3)n4CC)CC(C)(C)COC(=O)[C@@H]3CCCN(N3)C2=O)C(C)C)C1` [Compound A3], the half-inhibitory concentration (IC50) lay within 0.1 to 1 µM.

Consider `C=CC(=O)N1CC[C@H](C(=O)N(C)[C@H](C(=O)N[C@H]2Cc3cc(O)cc(c3)-c3ccc4c(c3)c(c(-c3cc(C)cnc3[C@H](C)OC)n4CC)CC(C)(C)COC(=O)[C@@H]3CCCN(N3)C2=O)C(C)C)C1` [Compound A167], for which the concentration for half-maximal inhibition (IC50) was less than 0.01 µM.
